Each structure is given as a SMILES string. Counter-ions that a name gives are not always drawn.

For the series, the system named is mouse. In words: toxicity on intraperitoneal dosage in the mouse. Type of series: in vivo. The procedure:
In using the compounds of this invention to inhibit prolactin secretion or to treat Parkinson's syndrome or for other pharmacologic action, a pharmaceutically active compound according to Formula I above, or a salt thereof with a pharmaceutically-acceptable acid, is administered to a subject suffering from Parkinsonism or in need of having their prolactin level reduced in an amount effective to alleviate some of the symptoms of Parkinsonism or to reduce an elevated prolactin level. Oral administration is preferred. If parenteral administration is used, the injection is preferably by the subcutaneous route using an appropriate pharmaceutical formulation. […] In particular, with intravenous or intramuscular administration, a water soluble pharmaceutically-acceptable salt is employed. For oral administration, a pharmaceutically active compound according to Formula I either as the free base or in the form of a salt thereof can also be mixed with standard pharmaceutical excipients and loaded into empty telescoping gelatin capsules or pressed into tablets. The oral dosage range is from about 0.01 to 10 mg/kg of mammalian weight and the parenteral dose range from about 0.0025 to 2.5 mg/kg of mammalian weight.

As to `CCCN(CCC)C1CCc2c[nH]cc2C1` (racemic) [dl-5-di-n-propylamino-4,5,6,7-tetrahydro-2H-benzo[c]pyrrole maleate], the deaths result (10-30 mg/kg) is on record as “no deaths”. For the same compound, the “deaths (fatal dosages)” value (100-300 mg/kg) is recorded as “fatal”.
